Laboratory results taken from patent US6630347B1, “Endothelial NOS transgenic animals and methods of use” (The General Hospital Corporation, priority 1996, dated 2003).
Counter-ions that a name gives are not always drawn. Marks after values point to notes of the source that are not given here.

What was measured:
[1] = Blood pressure responses to L-NA (femoral artery catheterization); format: in vivo, mice
Protocol: Mice were kept at normal temperature (37° C.), anesthetized with urethane ([…], intraperitoneal injection) or halothane inhalation, and ventilated using an SAR-830 mouse ventilator (CWE Instruments). Depth of anesthesia was adjusted to keep the blood pressure of animals unresponsive to tail-pinch with forceps. End-tidal CO2 was monitored with a microcapnometer and kept constant by adjustment of respiratory parameters. The right femoral artery was cannulated using stretched PE-10 polyethylene tubing (Clay Adams) for mean arterial blood pressure recordings using an ETH-400 transducer and a MacLab data acquisition system (ADI Instruments). For awake measurements, the femoral artery catheter was placed under halothane anesthesia and the wound was covered with 1% xylocane ointment to diminish discomfort. Recordings were made within one hour of the procedure. Data are expressed as means with standard deviation. Statistical evaluation was performed by t-test.
Mean arterial blood pressure (MABP) of urethane-anesthetized wild-type (solid line in FIG. 5) and eNOS mutant mice (dotted line in FIG. 5) were measured by femoral artery catheterization and recorded for 30 minutes of baseline before L-NA administration (arrows in FIG. 5). At time 0, 12 mg/kg of L-NA was given intraperitoneally. […] The blood pressure of eNOS mutant mice dropped from a baseline of 98 mm Hg to 66 mm Hg (n=5). […]

[2] = tested on: pial arterioles; experiment: Pial arteriole diameter during superfusion in closed cranial window; format: in vivo, mice
Excerpt: The mouse head was fixed in a stereotaxic frame and the skull exposed by a longitudinal skin incision. A stainless steel cranial window ring (8.0 mm in inner diameter, 2.0 mm in height) containing three ports was imbedded into a loop of bone wax over the skull. Dental acrylic was then applied. A craniotomy (2×1.5 mm) was made in the left parietal bone within the ring of the window. After dura was opened and the brain surface superfused with artificial cerebrospinal fluid (aCSF), a cover glass was placed to close the window. The volume under the window was approximately 0.1 ml. The composition of aCSF was as follows (in mMol/L): […] The aCSF was superfused by an infusion pump (0.4 ml/min) via a PE-100 tubing connected to a window port. Intracranial pressure was maintained at 5-8 mm Hg. The temperature of aCSF within the windows was maintained at 36.5-37.0° C. Pial vessels were visualized through a cranial window by an intravital microscope (Leitz, Germany) equipped with a video camera ([…], Hamamatsu Photonics, Hamamatsu, Japan). The diameter of a single pial arteriole (20-30 μm) was continuously measured by a video width analyzer ([…], Hamamatsu, Japan) and recorded using the MacLab data acquisition and analysis system. After baseline stabilization, nitro-L-arginine or nitro-D-arginine solution (1 mM) was superfused into the window and the diameter of pial arteriole measured continuously 40 min thereafter.

[3] = tested on: NOS binding sites; experiment: [3H]L-NG-nitro-arginine autoradiographic binding assay in brain sections; set-up: species or system mouse; conditions: for L-NA displaceable [3H]L-NA binding in the presence of D-NA: 10 μM D-NA; for L-NA displaceable [3H]L-NA binding in the presence of 7-NI: 100 μM 7-NI
Protocol: Mice and rats were sacrificed by decapitation under 2% halothane anesthesia (30% O2+70% N2O). The brains were rapidly removed, immediately frozen in powdered dry ice, and stored at −70° C. Twelve μm sagittal or coronal sections were cut in a cryostat-microtome at −18° C. (Leitz 1720, Leica, Deerfield, Ill., U.S.A.) and thaw-mounted onto gelatin-coated slides (1% gelatin and 0.1% KCr2O). Adjacent sections were stained with cresyl violet and hematoxylin eosin, and stored at −70° C.
The method for the autoradiographic visualization of NOS binding using [^3H]L-NG-Nitro-arginine ([^3H]L-NA) has been described previously. Rutherford et al., (1995). Prior to experiments, sections were brought to −20° C. and then to room temperature. Sections were preincubated for 15 min at room temperature in 50 mM Tris-HCl (pH 7.3) to remove the endogenous ligands and/or modulators, then incubated for 30 min at room temperature in 50 mM Tris-HCl buffer containing 10 μM CaCl2 and 25 nM N^G-nitro-L-[2,3,4,5-H]arginine hydrochloride ([^3H]L-NA, specific activity: 48-57 Ci/mmol, Amersham, Arlington Heights, Ill., U.S.A.). Unlabelled L-N^G-nitro-arginiine (L-NA, Sigma, St. Louis, Mo., U.S.A.), D-N^G-nitro-arginine (D-NA, RBI, Natick, Mass., U.S.A.) and 7-nitroindazole (7-NI, Cookson Chemicals Ltd., England) was added at concentrations of 10, 10, and 100 μM, respectively. The sections were then washed twice for 5 min in ice-cold buffer and rinsed for 10 sec in ice-cold distilled water to eliminate residual buffer. After drying with cold air, the slides were tightly apposed to ^3H-Hyperfilm (Amersham) together with tritiated polymer standards (Amersham) and exposed at −4° C. for 6 weeks.
Films were developed in Kodak D-19 and fixed in Kodak Rapid Fixer, according to the manufacturer's instructions. The optical density of the regions of interest was measured by a computer-assisted image analysis (System M4, Imaging Research, St. Catharines, Ontario, Canada). The relationship between optical density and radioactivity was examined with reference to the tritium standards (Amersham, [^3H]microscale) co-exposed with the tissue sections. […] The densities of NOS binding sites are expressed in fmol bound [^3H]L-NA/mg tissue using the [^3H]L-NA concentration of 25 nM.

[4] = tested on: aortic rings; experiment: Endothelium-dependent relaxation of aortic rings in response to acetylcholine; set-up: species or system mice
Excerpt: The rings were pre-contracted with 10^−7 M norepinephrine and exposed to increasing concentrations of acetylcholine (ACh) from 10^−8 M to 3×10^−5 M. 2-3 segments were collected from each mouse, and five mice were used from the wild-type and eNOS mutant groups. Mean data from each animal were used. Respective tracings are shown. Acetylcholine concentrations are expressed in logM.

[5] = Cerebral infarct size 24 hrs after middle cerebral artery (MCA) occlusion; format: in vivo, mice
Excerpt: Male and female wild-type (SV-129 and C57 Black/6, Taconic Farms, Germantown, N.Y.) and eNOS mutant mice weighing 20 to 26 g were housed under diurnal lighting conditions and allowed free access to food and water ad libitum.
Mice were anesthetized with 2% halothane for induction and maintained on 1% halothane in 70/30% nitrous oxide/oxygen by mask. The right femoral artery was cannulated with PE-10 polyethylene tubing for arterial blood pressure measurement (Gould, Oxnard, Calif.) and blood gas determination (Corning 178, Ciba Corning Diag., Medford, Mass.). Rectal temperature was maintained between 36.5-37.5° C. with a homeothermic blanket system (YSI, Yellow Springs, Ohio).
Focal cerebral ischemia was induced by occlusion of middle cerebral artery (MCA) using the intraluminal filament technique. […] Through a ventral midline incision, the right common and external arteries were isolated and ligated. A microvascular clip (Zen temporary clip, Ohwa Tsusho, Tokyo, Japan) was temporarily placed on the internal artery and the pterygopalatine artery. An 8-0 nylon monofilament (Ethicon, Somerville, N.J.) coated with silicone was introduced through a small incision in the common corotid artery and advanced 10 mm distal to the carotid bifurcation so as to occlude the MCA and posterior communicating artery. The wound was sutured and the animal returned to its cage and allowed free access to water and food.
Twenty-four hours later, animals were sacrificed with an overdoses of pentobarbital and the brains removed and sectioned coronally into five 2-mm slices in a mouse brain matrix. Slices were placed in 2% TTC solution, followed by 10% formalin overnight. […] The infarction area, outlined in white, was measured (Bioquant IV image analysis system) on the posterior surface of each section, and the infarction volume was calculated by summing the infarct volumes of sequential 2 mm thick sections. […]

[6] = Physiological data (blood gases, MABP) before MCA occlusion and after ischemia; format: in vivo, mice
Protocol: The right femoral artery was cannulated with PE-10 polyethylene tubing for arterial blood pressure measurement (Gould, Oxnard, Calif.) and blood gas determination (Corning 178, Ciba Corning Diag., Medford, Mass.). Rectal temperature was maintained between 36.5-37.5° C. with a homeothermic blanket system (YSI, Yellow Springs, Ohio). […] The investigator was blinded to the treatment group in this protocol.

[7] = eNOS mutant mice; 250 μg/ml in drinking water, daily dose about 750 μg; decrease from 102 mm Hg
Protocol: The effect of hypertension in vascular injury responses (both filament and cuff models) is measured by repeating the experiments after treating eNOS mutant mice with hydralazine to reduce their blood pressure to normotensive levels.

[8] = Babbedge et al. (1993); cited from earlier work
[9] = Amygdaloid complex, nNOS mutant
[10] = Cerebellum (molecular layer), SV-129
[11] = Cerebellum (molecular layer), nNOS mutant
[12] = Hippocampal CA3 subfield, SV-129
[13] = Hippocampal CA3 subfield, nNOS mutant

## NC(=N[N+](=O)[O-])NCCCC(N)C(=O)O [D-NA, D-N^G-nitro-arginine]
[1]; wild-type and eNOS mutant mice, 12 mg/kg
  blood pressure effects as seen with L-NA: not seen
[2]; eNOS mutant mice, 1 mM superfusion
  change in pial diameter: No change
[3]; Amygdaloid complex, SV-129
  L-NA displaceable [3H]L-NA binding in the presence of D-NA: 64 ± 7.6 fmol/mg tissue
[3]; [9]
  L-NA displaceable [3H]L-NA binding in the presence of D-NA: 3 ± 1.7*^,# fmol/mg tissue
[3]; [10]
  L-NA displaceable [3H]L-NA binding in the presence of D-NA: 59 ± 6.7 fmol/mg tissue
[3]; [11]
  L-NA displaceable [3H]L-NA binding in the presence of D-NA: 0 ± 3.6*^,# fmol/mg tissue
[3]; Dentate gyrus, SV-129
  L-NA displaceable [3H]L-NA binding in the presence of D-NA: 43 ± 4.8 fmol/mg tissue
[3]; Dentate gyrus, nNOS mutant
  L-NA displaceable [3H]L-NA binding in the presence of D-NA: 2 ± 1.9*^,# fmol/mg tissue
[3]; [12]
  L-NA displaceable [3H]L-NA binding in the presence of D-NA: 66 ± 5.9 fmol/mg tissue
[3]; [13]
  L-NA displaceable [3H]L-NA binding in the presence of D-NA: 3 ± 1.9*^,# fmol/mg tissue
[3]; Olfactory bulb (granular layer), SV-129
  L-NA displaceable [3H]L-NA binding in the presence of D-NA: 92 ± 10.8 fmol/mg tissue
[3]; Olfactory bulb (granular layer), nNOS mutant
  L-NA displaceable [3H]L-NA binding in the presence of D-NA: 5 ± 3.0*^,# fmol/mg tissue

## CC(=O)OCC[N+](C)(C)C [acetylcholine]
[4]; wild-type aortic segments pre-contracted with 10^-7 M norepinephrine, acetylcholine 3×10^-5 M
  pre-addition tone present after acetylcholine: 60.3±14.6%

## NNc1nncc2ccccc12 [hydralazine, hydralazine hydrochloride]
[5]; eNOS mutants made normotensive by hydralazine
  change of infarct size: did not change
[5]; protocol 1, eNOS mutant mice made normotensive by hydralazine 1 mg/kg ip 1 hr before and 5, 17 hrs after MCA occlusion, n=10
  infarct volume: 48±7 % of hemisphere
[6]; eNOS mutant mice given hydralazine vs wild-type mice
  MABP difference between groups after hydralazine administration: did not differ
[6]; protocol 1, eNOS mutant, hydralazine, 10 min before MCA occlusion
  MABP before: 102 ± 6 mmHg
[6]; protocol 1, eNOS mutant, hydralazine, 24 hrs after ischemia
  MABP after: 102 mmHg
[7]
  mean arterial pressure after hydralazine: 72 mm Hg

## NC(=N[N+](=O)[O-])NCCCC(N)C(=O)O [L-NA, L-nitroarginine]
[4]; wild-type vessel rings, 10^-4 M L-NA for 1 hour
  acetylcholine-induced relaxation after L-NA treatment: abolished
[5]; protocol 2, wild-type mice
  change of lesion size after MCA occlusion: did not change
[2]; 1 mM superfusion
  change in MABP during superfusion: no change
[2]; eNOS mutant mice, 1 mM superfusion for 40 min
  pial vessel diameter: increased
[3]; 10 μM, all brain regions of all mouse strains
  density of [3H]L-NA binding sites in the presence of L-NA: very low

## O=[N+]([O-])c1cccc2cn[nH]c12 [7-NI, 7-nitroindazole]
[3]; 100 μM, all regions measured, wild-type and eNOS mutant mice
  [3H]L-NA binding in the presence of 7-NI: significantly decreased
[3]; Amygdaloid complex, C57black/6
  L-NA displaceable [3H]L-NA binding in the presence of 7-NI: 21 ± 4.8 fmol/mg tissue
[3]; Amygdaloid complex, SV-129
  L-NA displaceable [3H]L-NA binding in the presence of 7-NI: 21 ± 2.1 fmol/mg tissue
[3]; Amygdaloid complex, eNOS mutant
  L-NA displaceable [3H]L-NA binding in the presence of 7-NI: 21 ± 2.9 fmol/mg tissue
[3]; [9]
  L-NA displaceable [3H]L-NA binding in the presence of 7-NI: 23 ± 2.5 fmol/mg tissue
[3]; Cerebellum (molecular layer), C57black/6
  L-NA displaceable [3H]L-NA binding in the presence of 7-NI: 23 ± 5.4 fmol/mg tissue
[3]; [10]
  L-NA displaceable [3H]L-NA binding in the presence of 7-NI: 18 ± 1.3 fmol/mg tissue
[3]; Cerebellum (molecular layer), eNOS mutant
  L-NA displaceable [3H]L-NA binding in the presence of 7-NI: 20 ± 2.2 fmol/mg tissue
[3]; [11]
  L-NA displaceable [3H]L-NA binding in the presence of 7-NI: 24 ± 1.0 fmol/mg tissue
[3]; Dentate gyrus, C57black/6
  L-NA displaceable [3H]L-NA binding in the presence of 7-NI: 22 ± 4.6 fmol/mg tissue
[3]; Dentate gyrus, SV-129
  L-NA displaceable [3H]L-NA binding in the presence of 7-NI: 18 ± 0.7 fmol/mg tissue
[3]; Dentate gyrus, eNOS mutant
  L-NA displaceable [3H]L-NA binding in the presence of 7-NI: 20 ± 2.7 fmol/mg tissue
[3]; Dentate gyrus, nNOS mutant
  L-NA displaceable [3H]L-NA binding in the presence of 7-NI: 22 ± 1.7 fmol/mg tissue
[3]; Hippocampal CA3 subfield, C57black/6
  L-NA displaceable [3H]L-NA binding in the presence of 7-NI: 22 ± 4.7 fmol/mg tissue
[3]; [12]
  L-NA displaceable [3H]L-NA binding in the presence of 7-NI: 18 ± 1.8 fmol/mg tissue
[3]; Hippocampal CA3 subfield, eNOS mutant
  L-NA displaceable [3H]L-NA binding in the presence of 7-NI: 21 ± 1.8 fmol/mg tissue
[3]; [13]
  L-NA displaceable [3H]L-NA binding in the presence of 7-NI: 23 ± 2.3 fmol/mg tissue
[3]; Olfactory bulb (glanular layer), C57black/6
  L-NA displaceable [3H]L-NA binding in the presence of 7-NI: 28 ± 4.1 fmol/mg tissue
[3]; Olfactory bulb (glanular layer), SV-129
  L-NA displaceable [3H]L-NA binding in the presence of 7-NI: 17 ± 0.7 fmol/mg tissue
[3]; Olfactory bulb (glanular layer), nNOS mutant
  L-NA displaceable [3H]L-NA binding in the presence of 7-NI: 30 ± 2.7 fmol/mg tissue
[8]
  effect on blood pressure: does not increase blood pressure

## N=C(N)NCCC[C@H](N)C(=O)O [L-arginine]
[1]; 200 mg/kg, intraperitoneal
  effect on the blood pressure responses to L-NA: prevented
